# Marks after values point to notes of the source that are not given here.
# Experiments:
# Type in all cases: in vivo, rat
# [1] = tested on: granulation tissue formation caused by implantation of cotton pellets; experiment: Granuloma formation test (local cotton pellet granuloma assay); conditions: for Body wt. gain / Granulation tissue Dry wt. / Granulation tissue Dry wt. Inhibition / Granulation tissue Wet wt. / Granulation tissue Wet wt. Inhibition / Thymus wt.: Table IV
# Method: The test compound was dissolved in acetone and aliquots of varying concentrations were injected into cotton pellets. The pellets were dried and then one pellet was implanted beneath the skin of each test rat. Six days later, the animals were sacrificed and the granulation tissue (granuloma) which formed in and around the implanted pellet was removed, dried and weighed. In addition, the thymi and adrenals were removed and weighed.
# thymus weight in rats = experiment: Thymus inhibition testing (subcutaneous administration)
# Method: Several further studies were undertaken to determine the effects of selected compounds of the invention on thymi weights in rats when the drugs were systemically administered. In each of these studies, male Sprague-Dawley rats were used. […] On the fifth day (48 hours following the last treatment), the animals were sacrificed and the thymi weights were recorded. […] It is evident that the higher the inhibition of thymus activity at a given dose, the more toxic the compound is.
# [2] = tested on: blank cotton pellet granuloma; experiment: Blank cotton pellet granuloma assay (intravenous administration); conditions: 3 days
# Method: A further test was undertaken to determine the thymolytic activity of a representative species of the invention as compared to betamethasone 17-valerate. In this test, the drugs were administered intravenously to rats, while using a blank cotton pellet granuloma assay. Male Sprague-Dawley rats, each weighing about 185 grams (166-196 grams), were used. Two cotton pellets, each weighing 30 mg and containing no test compounds, were sterilized and implanted sub-cutaneously into the back of each test animal. This day was considered day 0 of implantation. Test compounds suspended in 0.8% polysorbate 80 were administered intravenously once daily for 3 consecutive days beginning with day 1. On day 5, the animals were sacrificed and the two pellets, with their respective granulomas, were removed, dried overnight in an oven at 50° C. and weighed (dry granuloma weight). The thymi and final body weights were also recorded.
# In the foregoing tests, there was determined the deactivation of the representative species of the present soft steroids administered intravenously to rats. […] The test compounds were administered intravenously to rats to check the test compounds also for systemic anti-inflammatory activity as compared to betamethasone 17-valerate. The test compounds were found lower in the inhibition of granulation tissue formation and also in the thymus involution activity than betamethasone 17-valerate. From the results of the tests, it is presumed that the compounds which will not be readily subjected to metabolism (deactivation) have a systemic anti-inflammatory activity, as is the case with betamethasone 17-valerate.
# [3] = chloromethyl 11β-hydroxy-17α-isopropoxycarbonyloxyandrost-4-en-3-one-17β-carboxylate = 1
# [4] = Table VII, 1 mg/kg/day s.c., three days
# [5] = Table VII, 3 mg/kg/day s.c., three days
# [6] = Table VII, 10 mg/kg/day s.c., three days
# [7] = Table VII, 30 mg/kg/day s.c., three days
# [8] = Table VIII, 10 mg/kg/day s.c., three days
# [9] = Table X, betamethasone 17-valerate = 1
compound,measurement,setting,value
"CCOC(=O)O[C@]1(C(=O)OCCl)[C@H](C)C[C@H]2[C@@H]3CCC4=CC(=O)C=C[C@]4(C)[C@@]3(F)[C@@H](O)C[C@@]21C [chloromethyl 17α-ethoxycarbonyloxy-9α-fluoro-11β-hydroxy-16α-methylandrosta-1,4-dien-3-one-17β-carboxylate]",Body wt. gain,[1]; 0.3 μg/pellet,32.4 ± 1.1 g
same,Granulation tissue Dry wt.,[1]; 0.3 μg/pellet,57.3 ± 5.0 mg
same,Granulation tissue Dry wt. Inhibition,[1]; 0.3 μg/pellet,29.4%
same,Granulation tissue Wet wt.,[1]; 0.3 μg/pellet,472 ± 23 mg
same,Granulation tissue Wet wt. Inhibition,[1]; 0.3 μg/pellet,16.6%
same,Thymus wt.,[1]; 0.3 μg/pellet,492 ± 26 mg
same,Body wt. gain,[1]; 1 μg/pellet,37.3 ± 1.5 g
same,Granulation tissue Dry wt.,[1]; 1 μg/pellet,36.4 ± 2.4 mg
same,Granulation tissue Dry wt. Inhibition,[1]; 1 μg/pellet,55.2%
same,Granulation tissue Wet wt.,[1]; 1 μg/pellet,388 ± 31 mg
same,Granulation tissue Wet wt. Inhibition,[1]; 1 μg/pellet,31.4%
same,Thymus wt.,[1]; 1 μg/pellet,519 ± 22 mg
same,Body wt. gain,[1]; 3 μg/pellet,34.3 ± 1.1 g
same,Granulation tissue Dry wt.,[1]; 3 μg/pellet,27.4 ± 2.9 mg
same,Granulation tissue Dry wt. Inhibition,[1]; 3 μg/pellet,66.3%
same,Granulation tissue Wet wt.,[1]; 3 μg/pellet,331 ± 11 mg
same,Granulation tissue Wet wt. Inhibition,[1]; 3 μg/pellet,41.5%
same,Thymus wt.,[1]; 3 μg/pellet,472 ± 16 mg
same,Body wt. gain,[1]; 10 μg/pellet,36.1 ± 1.1 g
same,Granulation tissue Dry wt.,[1]; 10 μg/pellet,22.1 ± 3.6 mg
same,Granulation tissue Dry wt. Inhibition,[1]; 10 μg/pellet,72.8%
same,Granulation tissue Wet wt.,[1]; 10 μg/pellet,313 ± 13 mg
same,Granulation tissue Wet wt. Inhibition,[1]; 10 μg/pellet,44.7%
same,Thymus wt.,[1]; 10 μg/pellet,521 ± 35 mg
same,Body wt. gain,[1]; 30 μg/pellet,31.3 ± 1.4 g
same,Granulation tissue Dry wt.,[1]; 30 μg/pellet,20.4 ± 2.4 mg
same,Granulation tissue Dry wt. Inhibition,[1]; 30 μg/pellet,74.9%
same,Granulation tissue Wet wt.,[1]; 30 μg/pellet,290 ± 10 mg
same,Granulation tissue Wet wt. Inhibition,[1]; 30 μg/pellet,48.8%
same,Thymus wt.,[1]; 30 μg/pellet,505 ± 26 mg
same,ED50,"[1]; Table XII, anti-inflammatory effect in cotton pellet granuloma",1.07 μg/pellet
same,Relative potency (ED40),[1]; [3],653
same,Relative potency (ED60),[1]; [3],283
same,ED40,[1]; dose causing 40% inhibition of granulation tissue weight,0.47 μg/pellet
same,ED50,[1]; dose causing 50% inhibition of granulation tissue weight,1.07 μg/pellet
same,ED60,[1]; dose causing 60% inhibition of granulation tissue weight,2.44 μg/pellet
same,Body weight gain,thymus weight in rats; [4],13.1 ± 1.0 g
same,Thymus,thymus weight in rats; [4],428 ± 20 mg
same,Thymus Inhibition,thymus weight in rats; [4],9.1%
same,Body weight gain,thymus weight in rats; [5],12.7 ± 1.4 g
same,Thymus,thymus weight in rats; [5],412 ± 20 mg
same,Thymus Inhibition,thymus weight in rats; [5],12.5%
same,Body weight gain,thymus weight in rats; [6],9.7 ± 1.3 g
same,Thymus,thymus weight in rats; [6],405 ± 21 mg
same,Thymus Inhibition,thymus weight in rats; [6],14.0%
same,Body weight gain,thymus weight in rats; [7],4.4 ± 0.7 g
same,Thymus,thymus weight in rats; [7],292 ± 15 mg
same,Thymus Inhibition,thymus weight in rats; [7],38.0%
same,Body weight gain,thymus weight in rats; [8],14.2 ± 1.9 g
same,Thymus wt.,thymus weight in rats; [8],533 ± 31 mg
same,Thymus wt. Inhibition,thymus weight in rats; [8],3.1%
same,Relative Potency (TED40),thymus weight in rats; [9],0.0058
same,Relative Potency (TED50),thymus weight in rats; [9],<0.011
same,TED40,"thymus weight in rats; Table X, dose required to achieve 40% inhibition of thymi weight, subcutaneous",51.5 mg
same,TED50,"thymus weight in rats; Table X, dose required to achieve 50% inhibition of thymi weight, subcutaneous",<51.5^a mg
same,Relative Potency (TED40),"thymus weight in rats; Table XII, hydrocortisone 17-butyrate = 1",1/40
same,TED40,"thymus weight in rats; Table XII, thymus inhibition effect, subcutaneously",51.5 mg/kg
same,Body wt. gain,[2]; 1 mg/kg/day i.v.,14.1 ± 1.4 g
same,Dry granuloma wt.,[2]; 1 mg/kg/day i.v.,50.1 ± 6.9 mg
same,Dry granuloma wt. Inhibition,[2]; 1 mg/kg/day i.v.,20.1%
same,Thymus wt.,[2]; 1 mg/kg/day i.v.,373 ± 25 mg
same,Thymus wt. Decrease,[2]; 1 mg/kg/day i.v.,11.6%
same,Body wt. gain,[2]; 3 mg/kg/day i.v.,14.2 ± 1.3 g
same,Dry granuloma wt.,[2]; 3 mg/kg/day i.v.,49.3 ± 5.1 mg
same,Dry granuloma wt. Inhibition,[2]; 3 mg/kg/day i.v.,21.4%
same,Thymus wt.,[2]; 3 mg/kg/day i.v.,338 ± 20 mg
same,Thymus wt. Decrease,[2]; 3 mg/kg/day i.v.,19.9%
same,Body wt. gain,[2]; 10 mg/kg/day i.v.,0.3 ± 1.7 g
same,Dry granuloma wt.,[2]; 10 mg/kg/day i.v.,45.7 ± 4.6 mg
same,Dry granuloma wt. Inhibition,[2]; 10 mg/kg/day i.v.,27.1%
same,Thymus wt.,[2]; 10 mg/kg/day i.v.,209 ± 31 mg
same,Thymus wt. Decrease,[2]; 10 mg/kg/day i.v.,50.5%
same,Body wt. gain,[2]; 30 mg/kg/day i.v.,-18.5 ± 2.3 g
same,Dry granuloma wt.,[2]; 30 mg/kg/day i.v.,32.7 ± 3.0 mg
same,Dry granuloma wt. Inhibition,[2]; 30 mg/kg/day i.v.,47.8%
same,Thymus wt.,[2]; 30 mg/kg/day i.v.,71 ± 4 mg
same,Thymus wt. Decrease,[2]; 30 mg/kg/day i.v.,83.2%
